pEC50: −log10 of the molar value.
These compounds were tested on HT-29 cells (assay: HT-29 cell necrosis/necroptosis inhibition (TNF-α + SMAC mimetic + zVAD-FMK; CellTiter-Glo cell viability)). Settings: HT-29 cells, TNF-α 10 ng/ml + SMAC mimetic 6 μM + zVAD-FMK 10 μM, 20 hours; geometric mean, 10 points in duplicate; read-out: EC50 (Cell activity; Necrosis/Necroptosis Inhibitory Activity, Compounds 143-323).
Type: cell-based
Method in brief: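 HT-29 cells (~5,000/well) were switched to FBS-free McCOY's 5A holding TNF-α (10 ng/ml), SMAC mimetic (6 μM) and zVAD-FMK (10 μM), then dosed with a 10-point 1:3 series for 20 h at 37 °C. CellTiter-Glo luminescence gave viability; geometric mean EC50 from duplicates.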

Question: How did the pEC50 turn out when Cc1nc(C)n(-c2nc(N3CCN(C(=O)N4N=CCC4c4ncc(C)s4)CC3)ncc2F)n1 (centres unmarked) [Compound 231, (4-(4-(3,5-dimethyl-1H-1,2,4-triazol-1-yl)-5-fluoropyrimidin-2-yl)piperazin-1-yl)(5-(5-methylthiazol-2-yl)-4,5-dihydro-1H-pyrazol-1-yl)methanone] was run?
Answer: Its pEC50 is 7.00 to 10.00.

Same assay, conditions: Homo sapiens, HT-29, 20 h, read-out: EC50 (Cell activity; Necrosis/Necroptosis Inhibitory Activity, Compounds 1-142)

Question: How did the pEC50 turn out when Cc1nnnn1-c1ccnc(N2CCN(C(=O)N3N=CC[C@H]3c3cncc(C#N)c3)CC2)n1 [Compound 99, (S)-5-(1-(4-(4-(5-methyl-1H-tetrazol-1-yl)pyrimidin-2-yl)piperazine-1-carbonyl)-4,5-dihydro-1H-pyrazol-5-yl)nicotinonitrile] was run?
Answer: The pEC50 was 7.00 to 10.00.

Same assay, conditions: Homo sapiens, HT-29, 20 h, read-out: EC50 (Cell activity; Necrosis/Necroptosis Inhibitory Activity, Compounds 143-323)

Question: How did the pEC50 turn out when Cc1nc(C(=O)N2CCC2)nn1-c1nc(N2CCN(C(=O)N3N=CC[C@H]3c3cc(F)cc(C#N)c3)CC2)ncc1F [Compound 247, (S)-3-(1-(4-(4-(3-(azetidine-1-carbonyl)-5-methyl-1H-1,2,4-triazol-1-yl)-5-fluoropyrimidin-2-yl)piperazine-1-carbonyl)-4,5-dihydro-1H-pyrazol-5-yl)-5-fluorobenzonitrile] was run?
Answer: The pEC50 was 7.00 to 10.00.

Same assay, conditions: Homo sapiens; HT-29 cells, TNF-α 10 ng/ml + SMAC mimetic 6 μM + zVAD-FMK 10 μM, 20 hours; geometric mean, 10 points in duplicate; read-out: EC50 (Cell activity; Necrosis/Necroptosis Inhibitory Activity, Compounds 1-142)

Question: Cc1nn(-c2nc(N3CCN(C(=O)N4N=CC[C@H]4c4cc(F)cc(F)c4)CC3)ncc2F)c(=O)n1C [Compound 95, (S)-2-(2-(4-(5-(3,5-difluorophenyl)-4,5-dihydro-1H-pyrazole-1-carbonyl)piperazin-1-yl)-5-fluoropyrimidin-4-yl)-4,5-dimethyl-2,4-dihydro-3H-1,2,4-triazol-3-one] was tested. Which pEC50 did it give?
Answer: Its pEC50 is 7.00 to 10.00.

Question: With N#Cc1cc(F)cc([C@@H]2CC=NN2C(=O)N2CCN(c3ncc(F)c(-c4cn[nH]c4)n3)CC2)c1 [Compound 54, (S)-3-fluoro-5-(1-(4-(5-fluoro-4-(1H-pyrazol-4-yl)pyrimidinyl)piperazine-1-carbonyl)-4,5-dihydro-1H-pyrazol-5-yl)benzonitrile] as the compound, how does the pEC50 read?
Answer: Its pEC50 is 7.00 to 10.00.

Question: How did the pEC50 turn out when Cc1cc(-c2nc(N3CCN(C(=O)N4N=CC[C@H]4c4ccccc4)CC3)ncc2F)n(C)n1 [Compound 85, (S)-(4-(4-(1,3-dimethyl-1H-pyrazol-5-yl)-5-fluoropyrimidin-2-yl)piperazin-1-yl)(5-phenyl-4,5-dihydro-1H-pyrazol-1-yl)methanone] was run?
Answer: Its pEC50 is 7.00 to 10.00.

Question: How did the pEC50 turn out when Cc1n[nH]c(C)c1-c1nc(N2CCN(C(=O)N3N=CC[C@H]3c3cc(F)cc(C#N)c3)CC2)ncc1F [Compound 94, (S)-3-(1-(4-(4-(3,5-dimethyl-1H-pyrazol-4-yl)-5-fluoropyrimidin-2-yl)piperazine-1-carbonyl)-4,5-dihydro-1H-pyrazol-5-yl)-5-fluorobenzonitrile] was run?
Answer: Its pEC50 is 7.00 to 10.00.

Question: Cn1ncc(Cl)c1-c1nc(N2CCN(C(=O)N3N=CC[C@H]3c3cc(F)cc(F)c3)CC2)ncc1F [Compound 68, (S)-(4-(4-(4-chloro-1-methyl-1H-pyrazol-5-yl)-5-fluoropyrimidin-2-yl)piperazin-1-yl)(5-(3,5-difluorophenyl)-4,5-dihydro-1H-pyrazol-1-yl)methanone] was tested. Which pEC50 did it give?
Answer: The pEC50 was 7.00 to 10.00.

Question: O=C(N1CCN(c2nccc(-c3nnn[nH]3)n2)CC1)N1N=CC[C@H]1c1cc(F)cc(F)c1 [Compound 4, (S)-(4-(4-(1H-tetrazol-5-yl)pyrimidin-2-yl)piperazin-1-yl)(5-(3,5-difluorophenyl)-4,5-dihydro-1H-pyrazol-1-yl)methanone] was tested. Which pEC50 did it give?
Answer: The pEC50 was 7.00 to 10.00.

Same assay, conditions: Homo sapiens; HT-29 cells, TNF-α 10 ng/ml + SMAC mimetic 6 μM + zVAD-FMK 10 μM, 20 hours; geometric mean, 10 points in duplicate; read-out: EC50 (Cell activity; Necrosis/Necroptosis Inhibitory Activity, Compounds 143-323)

Question: With CCn1nc(C)n(-c2nc(N3CCN(C(=O)N4N=CC[C@H]4c4cc(F)cc(F)c4)CC3)ncc2F)c1=O [Compound 182, (S)-4-(2-(4-(5-(3,5-difluorophenyl)-4,5-dihydro-1H-pyrazole-1-carbonyl)piperazin-1-yl)-5-fluoropyrimidin-4-yl)-2-ethyl-5-methyl-2,4-dihydro-3H-1,2,4-triazol-3-one] as the compound, how does the pEC50 read?
Answer: Its pEC50 is 7.00 to 10.00.

Question: N#Cc1cc(F)cc([C@@H]2CC=NN2C(=O)N2CCN(c3ncc(F)c(-n4cnc(C(F)(F)F)n4)n3)CC2)c1 [Compound 306, (S)-3-fluoro-5-(1-(4-(5-fluoro-4-(3-(trifluoromethyl)-1H-1,2,4-triazol-1-yl)pyrimidin-2-yl)piperazine-1-carbonyl)-4,5-dihydro-1H-pyrazol-5-yl)benzonitrile] was tested. Which pEC50 did it give?
Answer: Its pEC50 is 7.00 to 10.00.

Question: Cc1nc(C(F)(F)F)nn1-c1ccnc(N2CCN(C(=O)N3N=CC[C@H]3c3cc(F)cc(C#N)c3)CC2)n1 [Compound 147, (S)-3-fluoro-5-(1-(4-(4-(5-methyl-3-(trifluoromethyl)-1H-1,2,4-triazol-1-yl)pyrimidin-2-yl)piperazine-1-carbonyl)-4,5-dihydro-1H-pyrazol-5-yl)benzonitrile] was tested. Which pEC50 did it give?
Answer: Its pEC50 is 7.00 to 10.00.

Question: Cc1nc(C(N)=O)nn1-c1nc(N2CCN(C(=O)N3N=CC[C@H]3c3cncc(F)c3)CC2)ncc1F [Compound 253, (S)-1-(5-fluoro-2-(4-(5-(5-fluoropyridin-3-yl)-4,5-dihydro-1H-pyrazole-1-carbonyl)piperazin-1-yl)pyrimidin-4-yl)-5-methyl-1H-1,2,4-triazole-3-carboxamide] was tested. Which pEC50 did it give?
Answer: The pEC50 was 7.00 to 10.00.

Question: Cc1csc(C2CC=NN2C(=O)N2CCN(c3ncc(F)c(-n4nc(C)nc4C)n3)CC2)n1 (centres unmarked) [Compound 215] was tested. Which pEC50 did it give?
Answer: Its pEC50 is 7.00 to 10.00.

Question: With Cc1nc(C)n(-c2nc(N3C[C@@H](C)N(C(=O)N4N=CC[C@H]4c4cc(F)cc(C#N)c4)[C@@H](C)C3)ncc2F)n1 [Compound 146, 3-((S)-1-((2S,6R)-4-(4-(3,5-dimethyl-1H-1,2,4-triazol-1-yl)-5-fluoropyrimidin-2-yl)-2,6-dimethylpiperazine-1-carbonyl)-4,5-dihydro-1H-pyrazol-5-yl)-5-fluorobenzonitrile] as the compound, how does the pEC50 read?
Answer: The pEC50 was 5.00 to 6.00.

Question: With Cc1c(N)nn(C)c1-c1nc(N2CCN(C(=O)N3N=CC[C@H]3c3cc(F)cc(C#N)c3)CC2)ncc1F [Compound 153, (S)-3-(1-(4-(4-(3-amino-1,4-dimethyl-1H-pyrazol-5-yl)-5-fluoropyrimidin-2-yl)piperazine-1-carbonyl)-4,5-dihydro-1H-pyrazol-5-yl)-5-fluorobenzonitrile] as the compound, how does the pEC50 read?
Answer: Its pEC50 is 7.00 to 10.00.

Question: Cc1nn(-c2nc(N3CCN(C(=O)N4N=CC[C@H]4c4cc(F)cc(C#N)c4)CC3)ncc2F)c(C)c1NC(=O)CC1CC1 [Compound 195, (S)—N-(1-(2-(4-(5-(3-cyano-5-fluorophenyl)-4,5-dihydro-1H-pyrazole-1-carbonyl)piperazin-1-yl)-5-fluoropyrimidin-4-yl)-3,5-dimethyl-1H-pyrazol-4-yl)-2-cyclopropylacetamide] was tested. Which pEC50 did it give?
Answer: Its pEC50 is 7.00 to 10.00.

Question: With Cc1nc(C)n(-c2ncc(F)c(N3CCN(C(=O)N4N=CCC4c4ncccc4Cl)CC3)n2)n1 (centres unmarked) [Compound 263, (5-(3-chloropyridin-2-yl)-4,5-dihydro-1H-pyrazol-1-yl)(4-(2-(3,5-dimethyl-1H-1,2,4-triazol-1-yl)-5-fluoropyrimidin-4-yl)piperazin-1-yl)methanone] as the compound, how does the pEC50 read?
Answer: Its pEC50 is 6.00 to 7.00.

Question: Cc1nn(-c2ccnc(N3CCN(C(=O)N4N=CC[C@H]4c4cc(F)cc(C#N)c4)CC3)n2)c(C)c1C#N [Compound 274, (S)-1-(2-(4-(5-(3-cyano-5-fluorophenyl)-4,5-dihydro-1H-pyrazole-1-carbonyl)piperazin-1-yl)pyrimidin-4-yl)-3,5-dimethyl-1H-pyrazole-4-carbonitrile] was tested. Which pEC50 did it give?
Answer: The pEC50 was 7.00 to 10.00.

Question: How did the pEC50 turn out when Cc1nc(C)n(-c2nc(N3CCN(C(=O)N4N=CC[C@H]4c4cncc(F)c4)CC3)ncc2F)n1 [Compound 248, (S)-(4-(4-(3,5-dimethyl-1H-1,2,4-triazol-1-yl)-5-fluoropyrimidin-2-yl)piperazin-1-yl)(5-(5-fluoropyridin-3-yl)-4,5-dihydro-1H-pyrazol-1-yl)methanone] was run?
Answer: Its pEC50 is 7.00 to 10.00.

Question: Cc1cc(C(F)(F)F)nn1-c1nc(N2CCN(C(=O)N3N=CC[C@H]3c3cc(F)cc(F)c3)CC2)ncc1F [Compound 196, (S)-(5-(3,5-difluorophenyl)-4,5-dihydro-1H-pyrazol-1-yl)(4-(5-fluoro-4-(5-methyl-3-(trifluoromethyl)-1H-pyrazol-1-yl)pyrimidin-2-yl)piperazin-1-yl)methanone] was tested. Which pEC50 did it give?
Answer: Its pEC50 is 7.00 to 10.00.

Question: Cn1ncnc1-c1nc(N2CCN(C(=O)N3N=CCC3c3ncccc3Cl)CC2)ncc1F (centres unmarked) [Compound 221] was tested. Which pEC50 did it give?
Answer: Its pEC50 is 7.00 to 10.00.

Question: CCS(=O)(=O)Nc1c(C)nn(-c2nc(N3CCN(C(=O)N4N=CC[C@H]4c4cc(F)cc(C#N)c4)CC3)ncc2F)c1C [Compound 194, (S)—N-(1-(2-(4-(5-(3-cyano-5-fluorophenyl)-4,5-dihydro-1H-pyrazole-1-carbonyl)piperazin-1-yl)-5-fluoropyrimidin-4-yl)-3,5-dimethyl-1H-pyrazol-4-yl)ethanesulfonamide] was tested. Which pEC50 did it give?
Answer: The pEC50 was 7.00 to 10.00.

Question: How did the pEC50 turn out when Cc1nc(C)n(-c2cc(N3CCN(C(=O)N4N=CC[C@H]4c4cc(F)cc(C#N)c4)CC3)c(F)cn2)n1 [Compound 272, (S)-3-(1-(4-(2-(3,5-dimethyl-1H-1,2,4-triazol-1-yl)-5-fluoropyridin-4-yl)piperazine-1-carbonyl)-4,5-dihydro-1H-pyrazol-5-yl)-5-fluorobenzonitrile] was run?
Answer: The pEC50 was 7.00 to 10.00.

Question: How did the pEC50 turn out when O=C(N1CCN(c2ncc(F)c(-n3cnc(C(F)(F)F)n3)n2)CC1)N1N=CC[C@H]1c1ccccc1 [Compound 312, (S)-(4-(5-fluoro-4-(3-(trifluoromethyl)-1H-1,2,4-triazol-1-yl)pyrimidin-2-yl)piperazinyl)(5-phenyl-4,5-dihydro-1H-pyrazol-1-yl)methanone] was run?
Answer: Its pEC50 is 7.00 to 10.00.

Question: How did the pEC50 turn out when Cc1nc(C)n(-c2nc(N3CCN(C(=O)N4N=CC[C@H]4c4cc(F)cc(C#N)c4)CC3)ncc2Cl)n1 [Compound 260, (S)-3-(1-(4-(5-chloro-4-(3,5-dimethyl-1H-1,2,4-triazol-1-yl)pyrimidin-2-yl)piperazine-1-carbonyl)-4,5-dihydro-1H-pyrazol-5-yl)-5-fluorobenzonitrile] was run?
Answer: The pEC50 was 7.00 to 10.00.
